Test results taken from PMC9261963, “Synthesis and Biological Evaluation of 5-Fluoro-2-Oxindole Derivatives as Potential α-Glucosidase Inhibitors” (Frontiers in Chemistry, 2022).
Like-named read-outs stand apart in the source and are kept apart here.

How the values were obtained:
[1] = molecular target: T1, α-glucosidase from Saccharomyces cerevisiae (EC 3.2.1.20) (Saccharomyces cerevisiae, UniProt P53341); assay: biochemical; conditions: for IC50 / inhibition at 100 µM / Inhibition rate at a concentration of 100 μM (%): p-NPG substrate; for IC50: pH 6.8, 37°C; for inhibition at 100 µM: read-out: Inhibition rate at a concentration of 100 μM (%), 100 μM compound; for Inhibition rate at a concentration of 100 μM (%): 100 μM compound; for Inhibitory activity, folds higher than acarbose: IC50 compared with acarbose
T1 construct: purchased Sigma-Aldrich
T1 sequence (P53341 whole entry): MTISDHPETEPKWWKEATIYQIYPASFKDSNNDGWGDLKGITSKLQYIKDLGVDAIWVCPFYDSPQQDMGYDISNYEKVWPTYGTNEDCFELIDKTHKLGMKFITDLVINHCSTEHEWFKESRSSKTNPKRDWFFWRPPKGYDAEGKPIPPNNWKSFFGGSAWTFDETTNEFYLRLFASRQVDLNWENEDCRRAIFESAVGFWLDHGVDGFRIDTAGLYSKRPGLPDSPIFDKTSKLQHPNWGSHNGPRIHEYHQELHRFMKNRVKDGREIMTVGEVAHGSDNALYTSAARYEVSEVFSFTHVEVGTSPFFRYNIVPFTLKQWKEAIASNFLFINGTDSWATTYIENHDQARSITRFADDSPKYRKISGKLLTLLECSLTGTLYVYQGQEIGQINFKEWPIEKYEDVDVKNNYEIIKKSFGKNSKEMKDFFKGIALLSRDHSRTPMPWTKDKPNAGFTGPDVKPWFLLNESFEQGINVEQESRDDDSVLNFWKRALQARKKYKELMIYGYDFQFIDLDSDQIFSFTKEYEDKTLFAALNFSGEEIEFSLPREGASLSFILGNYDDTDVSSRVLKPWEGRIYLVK
Description: Then, the inhibitory activity of compounds (3a ∼ 3v) on α-glucosidase from S. cerevisiae was investigated using p-NPG as the substrate. First, the inhibitory activities of compounds (3a ∼ 3v) were screened at a concentration of 100 μM.
The α-glucosidase inhibition of synthetic compounds was performed as previously reported methods with minor modification ([Deng et al., 2022]) which is as follows: briefly, 130 μl of phosphate buffer (10 mM, pH 6.8), 10 μl of α-glucosidase (1 U/ml), and 10 μl of test compound solution were added into the wells of a 96-well plate, followed by incubation for 10 min at 37°C. Then, 50 μl of p-NPG (1 mM) was added, and the plate was further incubated for 30 min at 37°C. Finally, the absorbance of each well was recorded at 405 nm using a microplate reader. […] The inhibition of the test compound on α-glucosidase was calculated as follows: inhibition ratio (%) = [(A− B)/A] × 100, where A is the absorbance of blank and B is the absorbance of the test compound. Each concentration was experimented four times in parallel. Half inhibitory concentration (IC50) was obtained from the fitting curve of inhibition ratio vs. test compound with different concentrations.

[2] = molecular target: T1, α-glucosidase from Saccharomyces cerevisiae (EC 3.2.1.20); assay: Kinetics mechanism analysis (enzyme activity vs enzyme concentration; Lineweaver–Burk plots); format: biochemical; conditions: for Inhibition mechanism (inhibition type): Lineweaver–Burk plot analysis; for Ki: inhibition constant from slope vs inhibitor concentration (free enzyme); for K IS: inhibition constant from vertical intercept vs inhibitor concentration (enzyme–substrate complex); for Reversibility of inhibition: plots of enzyme activity vs enzyme concentration
Description: In order to obtain the inhibition kinetics type of compounds 3d, 3f, and 3i, the Lineweaver–Burk plot analysis method was carried out with different concentrations of test compounds and substrates.
Compounds 3d, 3f, and 3i with much better α-glucosidase inhibitory activity were selected for kinetic analysis. The experiments were performed to investigate the kinetics mechanism of compounds 3d, 3f, and 3i by the previously reported method ([Xu et al., 2019]). To determine the inhibition mechanism, the final concentrations for 3d were 0, 40, 50, 60 μM, for 3f were 0, 40, 50, 60 μM, and for 3i were 0, 30, 40, 50 μM, the final substrate p-NPG concentration was 0.25 mM, and the final concentrations for α-glucosidase were 3.75 × 10^–2, 5.00 × 10^–2, 6.25 × 10^–2, and 7.50 × 10^–2 U/ml. Then, the inhibition rates were measured by the aforementioned method.
To analyze the inhibition type, the final concentrations for 3d were 0, 40, 50, and 60 μM, for 3f were 0, 40, 50, and 60 μM, and for 3i were 0, 30, 40, and 50 μM, the final α-glucosidase concentration was 5.00 × 10^–2 U/ml, and final concentrations for substrate p-NPG concentration were 0.25, 0.50, 0.75, and 1.00 mM. The inhibition rates were obtained by the aforementioned method. The inhibition type on α-glucosidase was analyzed by using Lineweaver–Burk plots of the inverse of velocities (1/v) vs. the inverse of substrate concentration 1/[S]. The K I and K IS were obtained from the slope and the vertical intercept vs. the inhibitor concentration, respectively.
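Throughout, for IC50 (μM): Absorbance-based enzyme read-out, with each concentration tested in four parallel replicates.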
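Throughout, for IC50: Absorbance-based enzyme read-out, with each concentration tested in four parallel replicates.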
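Throughout, for Inhibition rate at a concentration of 100 μM (%): Absorbance-based enzyme read-out, with each concentration tested in four parallel replicates.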
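Throughout, for Inhibitory activity, folds higher than acarbose: Absorbance-based enzyme read-out, with each concentration tested in four parallel replicates.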

Molecule	IC50 ([1]; read-out: IC50)	melting point	IC50 ([1]; IC50 (μM))	inhibition at 100 µM [1]	Inhibition mechanism (inhibition type) [2]	Ki [2]	K IS [2]	Reversibility of inhibition [2]	Inhibition rate at a concentration of 100 μM (%) [1]	Inhibitory activity, folds higher than acarbose [1]
O=C1Cc2cc(F)ccc2N1 [5-Fluoro-2-oxindole, 5-fluoro-2-oxindole]	7510 µM									
O=C1Nc2ccc(F)cc2/C1=C/c1ccccc1F [Compound 3a, (Z)-5-Fluoro-3-(2-Fluorobenzylidene) Indolin-2-One]		228.3 to 230.2 °C	> 100 µM	7.29 ± 0.16%						
O=C1Nc2ccc(F)cc2/C1=C/c1cccc(F)c1 [Compound 3b, (Z)-5-Fluoro-3-(3-Fluorobenzylidene) Indolin-2-One]		191.4 to 192.2 °C	> 100 µM	5.19 ± 0.79%						
O=C1Nc2ccc(F)cc2/C1=C/c1ccc(F)cc1 [Compound 3c, (Z)-5-Fluoro-3-(4-Fluorobenzylidene) Indolin-2-One]		217 to 219.6 °C	> 100 µM	9.55 ± 0.13%						
O=C1Nc2ccc(F)cc2/C1=C/c1ccccc1Cl [Compound 3d, (Z)-3-(2-Chlorobenzylidene)-5-Fluoroindolin-2-One]		219.7 to 221.9 °C	49.9 ± 1.16 µM	~90%	Mixed type	15 µM	453.85 µM	reversible	89.19 ± 0.14%	10 ∼ 15 folds
O=C1Nc2ccc(F)cc2/C1=C/c1cccc(Cl)c1 [Compound 3e, (Z)-3-(3-Chlorobenzylidene)-5-Fluoroindolin-2-One]		237.4 to 238.9 °C	> 100 µM	21.6 ± 0.78%						
O=C1Nc2ccc(F)cc2/C1=C/c1ccc(Cl)cc1 [Compound 3f, (Z)-3-(4-Chlorobenzylidene)-5-Fluoroindolin-2-One]		200.6 to 202.5 °C	35.8 ± 0.98 µM	~90%	Mixed type	33.8 µM	58.31 µM	reversible	90.52 ± 0.27%	10 ∼ 15 folds
O=C1Nc2ccc(F)cc2/C1=C/c1ccccc1Br [Compound 3g, (Z)-3-(2-Bromobenzylidene)-5-Fluoroindolin-2-One]		194.9 to 197.1 °C	95.68 ± 0.28 µM	~50%					53.71 ± 0.47%	
O=C1Nc2ccc(F)cc2/C1=C/c1cccc(Br)c1 [Compound 3h, (Z)-3-(3-Bromobenzylidene)-5-Fluoroindolin-2-One]		222.6 to 223.8 °C	> 100 µM	31.61 ± 0.21%						
O=C1Nc2ccc(F)cc2/C1=C/c1ccc(Br)cc1 [Compound 3i, (Z)-3-(4-Bromobenzylidene)-5-Fluoroindolin-2-One]		249.3 to 251.6 °C	56.87 ± 0.42 µM	~90%	Mixed type	22.7 µM	24.74 µM	reversible	92.86 ± 0.32%	10 ∼ 15 folds
COc1ccccc1/C=C1\C(=O)Nc2ccc(F)cc21 [Compound 3j, (Z)-5-Fluoro-3-(2-Methoxybenzylidene) Indolin-2-One]		227.1 to 227.8 °C	> 100 µM	19.2 ± 1.21%						
COc1cccc(/C=C2\C(=O)Nc3ccc(F)cc32)c1 [Compound 3k, (Z)-5-Fluoro-3-(3-Methoxybenzylidene) Indolin-2-One]		200.1 to 202.1 °C	> 100 µM	27.2 ± 1.47%						
COc1ccc(/C=C2\C(=O)Nc3ccc(F)cc32)cc1 [Compound 3l, (Z)-5-Fluoro-3-(4-Methoxybenzylidene) Indolin-2-One]		358.8 to 359.9 °C	> 100 µM	15.7 ± 0.71%						
O=C1Nc2ccc(F)cc2/C1=C/c1ccccc1C(F)(F)F [Compound 3m, (Z)-5-Fluoro-3-[2-(Trifluoromethyl) Benzylidene) Indolin-2-One]	> 100 µM	235.2 to 236.4 °C		8.43 ± 1.14%						
O=C1Nc2ccc(F)cc2/C1=C/c1cccc(C(F)(F)F)c1 [Compound 3n, (Z)-5-Fluoro-3-[3-(Trifluoromethyl) Benzylidene] Indolin-2-One]		199.7 to 200.5 °C	96.78 ± 0.72 µM	~50%					52.79 ± 1.68%	
O=C1Nc2ccc(F)cc2/C1=C/c1ccc(F)cc1F [Compound 3o, (Z)-3-(2,4-Difluorobenzylidene)-5-Fluoroindolin-2-One]		221.1 to 224.3 °C	> 100 µM	18.8 ± 1.15%						
O=C1Nc2ccc(F)cc2/C1=C/c1ccccc1 [Compound 3q, (Z)-3-Benzylidene-5-Fluoroindolin-2-One]			> 100 µM	10 ± 1.75%						
CSc1ccc(/C=C2\C(=O)Nc3ccc(F)cc32)cc1 [Compound 3r, (Z)-5-Fluoro-3-[4-(Methylthio) Benzylidene] Indolin-2-One]		246.1 to 247.1 °C	90.6 ± 1.87 µM	~50%					60.8 ± 1.27%	
O=C1Nc2ccc(F)cc2/C1=C/c1ccco1 [Compound 3s, (Z)-5-Fluoro-3-(Furan-2-ylmethylene) Indolin-2-One]		237.9 to 238.8 °C	> 100 µM	4.49 ± 1.88%						
O=C1Nc2ccc(F)cc2/C1=C/c1cccs1 [Compound 3t, (Z)-5-Fluoro-3-(Thiophen-2-ylmethylene) Indolin-2-One]			> 100 µM	5.67 ± 1.11%						
O=C1Nc2ccc(F)cc2/C1=C/c1ccc[nH]1 [Compound 3u, (Z)-3-[(1H-Pyrrol-2-yl)methylene]-5-Fluoroindolin-2-One]			> 100 µM	3.77 ± 1.35%						
O=C1Nc2ccc(F)cc2/C1=C/c1ccccn1 [Compound 3v, (Z)-5-Fluoro-3-(Pyridin-2-ylmethylene) Indolin-2-One]		248.5 to 251.2 °C	> 100 µM	3.99 ± 1.28%						
(Z)-3-(3,4-Difluorobenzylidene)-5-Fluoroindolin-2-One [Compound 3p]	92.62 ± 0.45 µM								55.89 ± 1.71%	
